Measured values taken from US20250368609A1, “TRIAZINANE COMPOUND AND COMPOSITION CONTAINING SAME” (SUMITOMO CHEMICAL COMPANY, LIMITED, priority 2022, published 2025).

Key:
[1] = test system: velvetleaf (Abutilon theophrasti); assay: Test method 1: upland field, post-emergence foliar application test (velvetleaf); format: in vivo; design: key: if there is no or almost no difference in the state of emergence or growth of test weeds at the time of investigation as compared with that of test weeds in an untreated control, the evaluation of the herbicidal efficacy is classified as “0”; if the test weeds are completely withered or emergence or growth of the test weeds is suppressed, the evaluation of the herbicidal efficacy is classified as “10”; settings: scale 0 to 10
From the text: Next, the herbicidal efficacy of the compound of the present invention is shown by test examples. In the following test examples, the evaluation of the herbicidal efficacy is classified into 0 to 10, where if there is no or almost no difference in the state of emergence or growth of test weeds at the time of investigation as compared with that of test weeds in an untreated control, the evaluation of the herbicidal efficacy is classified as “0”, and if the test weeds are completely withered or emergence or growth of the test weeds is suppressed, the evaluation of the herbicidal efficacy is classified as “10”. A pot is filled with a commercially available culture soil, and seeds of velvetleaf (Abutilon theophrasti) are sown in the pot. Thereafter, the seeds are covered with approximately 0.5 cm of soil, and each of the seeds is cultivated in a greenhouse for 13 days. Next, a predetermined amount of the test compound is dissolved in 1 mL of a DMF solution containing 2% of an adjuvant, and 18 mL of water is added thereto, thereby preparing a diluent. The diluent is uniformly sprayed over plants so as to give the plants a predetermined treatment amount. Thereafter, the plants are cultivated in the greenhouse for 20 days, and herbicidal efficacy is evaluated.

velvetleaf = assay: Test method 3: upland field, post-emergence foliar application test, herbicidal efficacy against velvetleaf; format: in vivo, Abutilon theophrasti; design: key: if there is no or almost no difference in the state of emergence or growth of test weeds at the time of investigation as compared with that of test weeds in an untreated control, the evaluation of the herbicidal efficacy is classified as “0”; if the test weeds are completely withered or emergence or growth of the test weeds is suppressed, the evaluation of the herbicidal efficacy is classified as “10”; settings: scale 0 to 10
[2] = test system: waterhemp (Amaranthus tuberculatus=A. rudis); assay: Test method 3: upland field, post-emergence foliar application test, herbicidal efficacy against waterhemp; format: in vivo; settings: scale 0 to 10
corn (Zea mays) = settings: in vivo, 7 days

| SMILES | Herbicidal efficacy Velvetleaf 3 WAT ([1]; dosage 1 gAI/ha) | Herbicidal efficacy Velvetleaf 3 WAT ([1]; dosage 2 gAI/ha) | Herbicidal efficacy Velvetleaf 1 WAT (velvetleaf; dosage 16 gAI/ha) | Herbicidal efficacy Velvetleaf 1 WAT (velvetleaf; dosage 32 gAI/ha) | Herbicidal efficacy Waterhemp 1 WAT ([2]; dosage 16 gAI/ha) | Herbicidal efficacy Waterhemp 1 WAT ([2]; dosage 32 gAI/ha) | Phytotoxicity Corn 1 WAT (corn (Zea mays)) | Herbicidal efficacy Velvetleaf 1 WAT (velvetleaf; dosage 8 gAI/ha) | Herbicidal efficacy Waterhemp 1 WAT ([2]; dosage 8 gAI/ha) |
| --- | --- | --- | --- | --- | --- | --- | --- | --- | --- |
| Cn1c(=S)n(C)c(=O)n(-c2cc(OC3CCCC3)c(Cl)cc2F)c1=O [Compound C-1] | 1 | 1 |  |  |  |  |  |  |  |
| C=CCOC(=O)C1(Oc2cc(-n3c(=O)n(C)c(=S)n(C)c3=O)c(F)cc2Cl)CC1 [Compound I-5] | 10 | 10 | 10 | 10 | 9 | 9 | 1 |  |  |
| CCOC(=O)COC(=O)C1(Oc2cc(-n3c(=O)n(C)c(=S)n(C)c3=O)c(F)cc2Cl)CC1 [Compound I-14] | 10 | 10 | 10 |  | 9 |  | 1 | 10 | 9 |
| C=CCOC(=O)C(C)Oc1cc(-n2c(=O)n(C)c(=S)n(C)c2=O)c(F)cc1Cl (stereo not shown) [Compound C-2] | 1 | 1 |  |  |  |  |  |  |  |
| CCOCCOC(=O)C(C)Oc1cc(-n2c(=O)n(C)c(=S)n(C)c2=O)c(F)cc1Cl (stereo not shown) [Compound C-3] | 1 | 1 |  |  |  |  |  |  |  |
| CCOC(=O)COC(=O)C1(Oc2cc(-n3c(=O)cc(C(F)(F)F)n(C)c3=O)c(F)cc2Cl)CC1 [Compound B-2] |  |  | 10 |  | 9 |  |  | 10 | 9 |
| C=CCOC(=O)C1(Oc2cc(-n3c(=O)cc(C(F)(F)F)n(C)c3=O)c(F)cc2Cl)CC1 [Compound B-1] |  |  | 10 | 10 | 9 | 9 |  |  |  |
